Patent US20240207265A1, “TREATMENT OF CNS DISEASES WITH sGC STIMULATORS” (Tisento Therapeutics Inc., priority 2021, published 2024)

Test system: cGMP
Assay: cGMP concentration in rat CSF after single oral dose (CSF biomarker)
Format: in vivo
Experimental: Rats were administered a single dose of either vehicle or sGC stimulator (1, 3, 10 or 30 mg/kg). One, two and six hours after administration, CSF samples were collected and analyzed to determine cGMP and compound concentrations and plasma samples were collected and analyzed to determine compound concentration. Each rat was sampled one time or multiple times with 3 or more days in between each dosing. The day before the experiment rats were fasted overnight with ad libitum access to water.
On the day of the experiment, compound and cyclic guanosine monophosphate (cGMP) concentrations in rat CSF was determined following oral dosing. Male CD rats implanted with an intracisternal cannula (250-275 g) were used for these studies. Rats were single housed under controlled conditions of temperature (21±1° C.), relative humidity (36±1%) and placed in a 12-hr light-dark cycle (lights on at 6:00 AM and off at 6:00 PM) room at SmartLabs vivarium (21 Erie Street, Cambridge, MA) under protocol MIL-110. Animals were allowed ad libitum access to chow (LabDiet Prolab Isopro RMH 3000, St. Louis, MO) and water. The rats were dosed with 0 mg/kg (vehicle), 1 mg/kg, 3 mg/kg, 10 mg/kg, or 30 mg/kg of a compound of the invention formulated as a suspension in 0.5% methylcellulose, 0.5% Tween80 or as a solution in MilliQ water. […]
Plasma and CSF samples were collected under isoflurane anesthesia as follows: samples of CSF and blood were collected at 1, 2, and 6 hours post-dosing. […] Plasma and CSF was collected and analyzed for the presence of a compound.
The compound of the invention, cGMP and the internal standard were extracted from plasma and CSF by precipitation. Samples were analyzed using liquid chromatography (LC) with tandem mass spectrometric detection (MS/MS) using electrospray ionization. […] CSF cGMP data were graphed using Graphpad Prism, version 8.4.3 and are expressed as means±S.E.M. Data were analyzed with a Mixed-effects analysis followed by Dunnett's multiple comparison test comparing to vehicle-treated rats within timepoint. […]

## Cc1cc(F)c(Cc2nc(-c3ncc(F)c(O)n3)cn3ccnc23)cc1F [Compound I-14, 5-fluoro-2-(8-(2,5-difluoro-4-methylbenzyl)imidazo[1,2-a]pyrazin-6-yl)pyrimidin-4-ol]
1 mg/kg PO as sodium salt, two hours after dosing
  concentration of cGMP in rat CSF vs vehicle-treated rats: significantly higher cGMP in CSF
3 mg/kg PO as sodium salt, one and two hours after dosing
  concentration of cGMP in rat CSF vs vehicle-treated rats: significantly higher concentrations of cGMP in the CSF
10 or 30 mg/kg PO as sodium salt, 1, 2 and 6 hours postdose
  concentration of cGMP in rat CSF vs vehicle-treated rats: significantly higher cGMP in the CSF
